Experimental data: patent US20220135564A1, “DEUTERATED MITRAGYNINE ANALOGS AS SAFER OPIOID MODULATORS IN THE MITRAGYNINE CLASS” (The Trustees of Columbia University in the City of New York, priority 2019, published 2022)

How the values were obtained:
[1] = Pharmacokinetics in 129S1 mice, brain metabolite concentrations at 15 minutes; conditions: male 129S1 mice, 10 mg/kg s.c.
Male Sprague-Dawley rats = test: Rat tail-flick assay (analgesic activity); format: in vivo; conditions: oral gavage, 50° C. hot-water bath, 30 minutes after administration
Procedure: Animals. Male Sprague-Dawley rats, aged 7-8 weeks, were used in experiments. Animals were housed under controlled temperatures and 12-hour light/dark cycles (lights on at 06:00-18:00 h), with ad libitum food and water. The study was approved by the Institutional Animal Care and Use Committee (IACUC) at WuXi AppTec (Shanghai). WuXi's animal facilities and IACUC are fully accredited by the Association for Assessment and Accreditation of Laboratory Animal Care International (AAALAC). All efforts were made to minimize animal suffering.
Drugs and Drug Administration. Drugs were prepared as described above and administered by oral gavage at a volume of 5 mL/kg in de-ionized water acidified with acetic acid.
Tail-Flick. Analgesic activity was assessed in the tail-flick assay 30 minutes (peak effect) after administration of vehicle and each dose of drug (n=8 per treatment). Animals were tested for their latency to withdraw their tails from a hot water bath maintained at 50° C. with a room temperature of 22° C. A cutoff time of 7 seconds was used to prevent tissue damage. Data were analyzed as percent maximal effect, % MPE, which was calculated according to the formula: % MPE=[(observed latency−vehicle latency)/(maximal latency−vehicle latency)]×100. Dose-response curves were fit by nonlinear regression (GraphPad Prism, La Jolla, Calif.).

[2] = MS9 metabolite formation (M1, M4, M6) from mitragynine and 3-DM; format: in vitro ADME, mouse; conditions: 2 μM, 37° C., over 60 minutes, MS peak area, compared to mitragynine
Procedure: MS9 Metabolite Formation. Liver S9 fraction pooled from male CD-1 mice was used. […] Control incubations were performed replacing the cofactor system with phosphate buffer. […] Incubations were performed in duplicate. Five time points over 60 minutes were analyzed. […] Supernatants were analyzed for remaining parent compound and metabolites by liquid chromatography-tandem mass spectrometry (LC-MS/MS).

[3] = Pharmacokinetics in C57BL/6 mice, plasma and brain metabolite concentrations; conditions: male C57BL/6 mice, 10 mg/kg s.c., 0.083-24 h
Procedure: Animals. Healthy male C57BL/6 mice (8-12 weeks old) weighing between 19 to 28 g were procured from Global, India. Four mice were housed in each cage. Temperature and humidity were maintained at 22±3° C. and 30-70%, respectively and illumination was controlled on a 12-h light/dark cycle. Temperature and humidity were recorded by an auto-controlled data logger system. All animals were provided a laboratory rodent diet (Envigo Research Private Ltd, Hyderabad, India) and reverse osmosis water treated with ultraviolet light was provided ad libitum.
Drugs. Mitragynine and 3-DM were dissolved in normal saline made slightly acidic (˜pH 3) with 1M aqueous HCl. Drugs were administered subcutaneously at a volume of 10 mL/kg body weight and a dose of 10 mg/kg.
Pharmacokinetics. Blood samples (approximately 60 μL) were collected under light isoflurane anesthesia from the retro orbital plexus at 0.083, 0.25, 0.5, 1, 2, 4, 8 and 24 h (4 animals per time point). Plasma samples were separated by centrifugation of whole blood and stored below −70° C. until bioanalysis. Immediately after collection of blood, mice were euthanized and brain samples were collected at 0.083, 0.25, 0.5, 1, 2, 4, 8 and 24 h (4 animals per time point). Brain samples were homogenized using ice-cold phosphate buffered saline (pH 7.4) and homogenates were stored below −70° C. until analysis. Total homogenate volume was three times the tissue weight. Aliquots (25 μL) of each study sample (dilution factor applied for several samples) or spiked calibration standard were added to individual micro-centrifuge tubes followed by 100 μL of internal standard solution prepared in acetonitrile (Glipizide, 500 ng/mL; except for blank, where 100 μL of acetonitrile was added). Samples were vortexed for 5 minutes and then centrifuged for 5 minutes at a speed of 4000 rpm at 4° C. Following centrifugation, supernatants were analyzed for metabolites DHM (both mitragynine and 3-DM treatment) and 7-OH (mitragynine treatment) or 3-d-7-OH (3-DM treatment), using a fit-for-purpose liquid chromatography-tandem mass spectrometry (LC-MS/MS) method, with authentic samples of each analyte used for calibration and identification.

HLM metabolite formation = conditions: 2 μM, 37° C., over 40 minutes
Procedure: HLM Metabolite Formation. Pooled HLM from 50 adult male and female donors (XenoTech H0630, lot 1610016) were used. Microsomal incubations of mitragynine and 3-DM were carried out in 96-well plates in 5 aliquots of 40 μL each (one for each time point). Liver microsomal incubation medium contained PBS (100 mM, pH 7.4), MgCl2 (3.3 mM), NADPH (3 mM), glucose-6-phosphate (5.3 mM), glucose-6-phosphate dehydrogenase (0.67 units/mL) with 0.42 mg of liver microsomal protein per ml. Control incubations were performed replacing the NADPH-cofactor system with PBS. Test compounds (2 μM, final solvent concentration 1.6%) were incubated with microsomes at 37° C., shaking at 100 rpm. Incubations were performed in duplicate. Five time points over 40 minutes were analyzed. The reactions were stopped by adding 8 volumes of 90% acetonitrile-water to incubation aliquots, followed by protein sedimentation by centrifugation at 5500 rpm for 3 minutes. Supernatants were analyzed for parent compound remaining and metabolites DHM (both mitragynine and 3-DM incubations), 7-OH (mitragynine incubations), and 3-d-7-OH (3-DM incubations), using a fit-for-purpose liquid chromatography-tandem mass spectrometry (LC-MS/MS) method, with authentic samples of each analyte used for calibration and identification.

[4] = Mouse brain homogenate (MBH) stability and metabolite formation; format: in vitro ADME; conditions: 2 μM, 37° C., over 120 minutes
Procedure: MBH Preparation. Male BALB/c mice (12-14 weeks old) were housed in polypropylene cages with free access to standard commercial food pellets and tap water. Animals were sacrificed by cervical dislocation immediately prior to brain homogenate preparation. Brains from 10 mice were fragmented into small pieces and homogenized in ice-cold artificial cerebrospinal fluid solution (ACSF: 126 mM NaCl, 2.68 mM KCl, 1 mM Na2HPO4, 0.88 mM MgSO4, 22 mM NaHCO3, 1.45 mM CaCl2, 10 mM HEPES, 11 mM D-glucose, pH 7.4) using a TH-01 OMNI homogenizer. Samples were centrifuged at 1500×g for 10 minutes. Supernatants were decanted and collected. Total protein concentration was determined by Bradford assay and equaled 17.7 mg/mL. The obtained brain homogenate was flash-frozen in liquid nitrogen. Aliquots were stored at −70° C. until use.
MBH Stability and Metabolite Formation. […] The incubation medium consisted of artificial cerebrospinal fluid solution (ACSF: 126 mM NaCl, 2.68 mM KCl, 1 mM Na2HPO4, 0.88 mM MgSO4, 22 mM NaHCO3, 1.45 mM CaCl2, 10 mM HEPES, 11 mM D-glucose, pH 7.4) with 2 mg of brain protein per mL. Test compounds (2 μM, final solvent concentration 1%) were incubated with brain homogenate at 37° C., shaking at 100 rpm. Incubations were performed in duplicate. Six time points over 120 minutes were analyzed.

[5] = Stability and metabolite formation in dog plasma; format: in vitro ADME; conditions: 1 μM, 37° C., over 120 minutes
Procedure: Stability and Metabolite Formation in Dog Plasma. Beagle dog plasma with Na citrate (Innovatine Research, Inc., lot #IBG-NaCitrate-28323) was used in this study. Plasma incubations were carried out in 5 aliquots of 70 μL each (one for each time point), in duplicate. Test compounds (1 μM, final DMSO concentration 1%) were incubated at 37° C. with shaking at 100 rpm. Five time points over 120 minutes were analyzed. The reactions were stopped by adding 400 μL of acetonitrile-methanol mixture (1:1) with subsequent plasma protein sedimentation by centrifugation at 5500 rpm for 5 minutes.

[6] = Simulated gastric fluid (SGF) incubations monitored by NMR; format: physicochemical; conditions: deuterated SGF, 1.3 mg/mL, room temperature
Procedure: SGF Incubations. Deuterated SGF (to permit direct NMR monitoring of the reactions) was prepared by combining NaCl (10 mg) and 37% DCl in D2O (35 μL) and diluting up to a final volume of 5.0 mL with D2O. Solutions of 7-OH and 3-d-7-OH in deuterated SGF were prepared at a concentration of 1.3 mg/mL containing N-methyl-2-pyrrolidone (NMP) as an internal standard (IS) at a concentration of 3.33 μL/mL and the reaction mixtures were left to stand at room temperature. NMR spectra were recorded on a Bruker 500 MHz instrument at the following time points: 35, 65, 125, 245, 365, and 1440 minutes (relative to time of solution mixing). Chemical shifts were referenced to the D2O residual solvent peak at 4.79 ppm. Decomposition of parent compounds was quantified by the peak area ratio of a doublet at 6.63 ppm (corresponding to 7-OH and 3-d-7-OH) and a singlet at 2.84 ppm (corresponding to IS). These ratios, calculated at each time point, were normalized to the ratio determined at 35 minutes to obtain values as percent remaining (100% at 35 minutes). Concentration of DHM was determined at each time point by comparing the peak areas of a doublet at 6.70 ppm (corresponding to DHM) and a singlet at 2.84 ppm (corresponding to IS) and using the known concentration of internal standard (3.33 μL/mL=34.5 mM). The concentration of DHM formed from 3-d-7-OH was below the lower limit of quantitation of -0.1 mM at the 35-, 65-, and 125-minute time points.

[7] = compared to 7-OH from mitragynine
[8] = 35-1440 minutes, compared to 7-OH

## [2H][C@@]12C[C@H](/C(=C\OC)C(=O)OC)[C@H](CC)CN1CCc1c2[nH]c2cccc(OC)c12 [3-DM, 3-Deuteromitragynine]
[1]; [7]
  brain concentration of 7-hydroxy active metabolite (3-d-7-OH): little effect
[1]; compared to mitragynine
  brain concentration of DHM: greatly attenuated
Male Sprague-Dawley rats
  analgesic effect in the tail-flick assay: dose-dependent analgesic effects
[2]
  formation of metabolite M1 in MS9: greatly attenuated
  formation of metabolite M4 in MS9: greatly attenuated
  formation of metabolite M6 in MS9: greatly attenuated
[3]; [7]
  brain concentration of active metabolite 3-d-7-OH: no effect
  plasma concentration of active metabolite 3-d-7-OH: no effect
[3]; compared to mitragynine
  brain concentration of DHM: greatly attenuated
  plasma concentration of DHM: greatly attenuated
HLM metabolite formation; [7]
  formation of 7-hydroxy active metabolite (3-d-7-OH) in HLMs: little effect
HLM metabolite formation; compared to mitragynine
  concentration of toxic metabolite DHM formed in HLMs: greatly attenuated
[4]
  decomposition of parent compound in MBH: attenuated the decomposition
[4]; compared to mitragynine
  formation of DHM in MBH: attenuated formation of DHM

## [2H][C@@]12C[C@H](/C(=C\OC)C(=O)OC)[C@H](CC)CN1CC[C@@]1(O)C2=Nc2cccc(OC)c21 [3-d-7-OH, 3-Deutero-7-hydroxymitragynine]
[5]
  decomposition of parent compound in dog plasma: attenuated the decomposition
[5]; compared to 7-OH
  formation of DHM in dog plasma: attenuated formation of DHM
[6]; [8]
  decomposition of parent compound in SGF: did not slow decomposition
  formation of toxic metabolite DHM in SGF: greatly attenuated
[6]; 35-, 65-, and 125-minute time points, below lower limit of quantitation
  concentration of DHM formed in SGF: < -100 µM

## CC[C@@H]1CN2CC[C@@]3(O)C(=Nc4cccc(OC)c43)[C@@H]2C[C@@H]1/C(=C\OC)C(=O)OC [7-OH, 7-Hydroxymitragynine, reference compound]
[5]
  decomposition of parent compound in dog plasma: unstable

## CC[C@@H]1CN2CCc3c([nH]c4cccc(OC)c34)[C@@H]2C[C@@H]1/C(=C\OC)C(=O)OC [Mitragynine]
Male Sprague-Dawley rats
  analgesic effect in the tail-flick assay: dose-dependent analgesic effects
[4]
  decomposition of parent compound in MBH: unstable
